# Assay results from patent publication US20130203069A1, “Dynamic Assay for Maintenance and Disruption of Tissue Level Organization and Architecture” (THE REGENTS OF THE UNIVERSITY OF CALIFORNIA, priority 2012, published 2013).
# Assays:
# [1] = tested on: HMEC strain 240L (LEPs and MEPs); test: Microwell self-organization assay; assay type: cell-based, human; settings: for self-organization of LEPs and MEPs: actomyosin inhibitors (ML-7 3×10^−6 M, Y27632 10^−5 M) added at the beginning, refreshed every 24 h, over 48 h; for organization measured at 48 h: inhibitor added a single time after 24 h, when organization was already underway; for self-organization at the 24-h time point / differences in LEP:MEP ratios in the core and at the periphery by 48 h: inhibitor added a single time at 0 h; for differences in LEP:MEP ratios in the core and at the periphery by 48 h: P<0.01
# Text: Micropatterned substrata were made according to Tan et al. (2004) “Simple approach to micropattern cells on common culture substrates by tuning substrate wettability”. Tissue Eng 10:865-872, hereby incorporated by reference. Polydimethylsiloxane (PDMS) microwell arrays were formed by curing prepolymer with base:cure ratio of 10:1 (Sylguard 184) against a prepatterned master. The arrays of wells were peeled away and were cut into 1-cm^2 pieces that were affixed with a few microliters of uncured PDMS to the bottom of a 24-well plate (Mitek). Plates with microwells were UV oxidized for 7 min (UVO-Cleaner 42; Jelight Co.), blocked with 2 mg/mL BSA (Sigma) for 1 h under vacuum, and rinsed with PBS and M87A. All self-organizing experiments were conducted with HMEC strain 240L. Flow cytometry-sorted HMEC were stained with CM-DiI, SP-DiOC18 (Steinberg M S, (1962) On the mechanism of tissue reconstruction by dissociated cells. I. Population kinetics, differential adhesiveness, and the absence of directed migration. Proc Natl Acad Sci USA 48:1577-1582), or DiIC18(Wei C, et al., (2007) Self-organization and branching morphogenesis of primary salivary epithelial cells. Tissue Eng 13:721-735)-DS (Invitrogen), used at 1:1,000 in PBS for 5 min at 37° C. followed by 15 min at 4° C. Cells were washed extensively with medium after staining Dye-stained HMEC were mixed at a ratio of 1:1 (LEP:MEP) or 1:1 (randomly stained green:red HMEC cultures) and were resuspended in M87A at 1 million cells/mL. […] HMEC were imaged at 0, 24, or 48 h with a spinning disk confocal microscope (Carl Zeiss). Red and green fluorescence channels in images taken at the ˜25-μm z axis positions of 30 wells from each condition at each time point were binarized using the Threshold function, merged into a Z-stack, and then averaged using ImageJ software (National Institutes of Health). Gray-scaled average images corresponding to LEP and MEP were merged into a single image with red or green look-up tables applied to each average image.
# Heat maps were generated. Briefly, heat maps were normalized to the highest intensity value and were used to quantify sorting using the expression log2(mean green pixel intensity/mean red pixel intensity). A script was written using MATLAB (Mathworks) to plot differential intensity as a function of the distance from the center and to compute the average plot from θ of 0-360° (Fig S2).
# mouse mammary organoids = settings: time-lapse imaging studies; less catastrophic than in the HMEC microwell assay; cited from earlier work
# MEPs = test: Atomic force microscopy measurement of stiffness (MEPs); assay type: cell-based, human; settings: 45 cells per condition
# Procedure: (§1) Once samples were equilibrated to 25° C., cell deformity was measured, and stiffness was calculated as previously described (Alcaraz J, et al., (2008) Laminin and biomimetic extracellular elasticity enhance functional differentiation in mammary epithelia. EMBO J 27:2829-2838.). The resulting data were plotted using Prism(GraphPad Software) (n=45).
# LEPs = test: Atomic force microscopy measurement of stiffness (LEPs); assay type: cell-based, human; settings: 45 cells per condition
# Procedure: as §1
# HMEC cell surfaces = test: Recombinant E-cadherin (recEcad) binding to HMEC cell surfaces by flow cytometry; assay type: cell-based, human; settings: 6 h pretreatment/preincubation of HMEC in suspension; recEcad 100 μg/mL 1 h on ice
# Procedure: (§2) To determine effects of inhibitors, Y27632 at 10−5 M (Calbiochem) or ML-7 at 3×10−6 M (Calbiochem) was added to HMEC medium for 6 h at 37° C. (5% CO2) before trypsinization and subsequent measurement of E-cadherin by FACS. To measure the ability of recEcad to bind to HMEC in presence of inhibitors, cells were suspended in their medium in Falcon tubes (to prevent adhesion to a culture surface) in the presence of Y27632 at 10−5M (Calbiochem), ML-7 at 3×10−6M (Calbiochem), or anti-E-cadherin (100 μg/mL; clone HECD-1; Invitrogen), or in calcium-free medium for 6 h at 37° C. (5% CO2). recEcad conjugated to human IgG Fc region was added at 100 μg/mL for 1 h on ice. HMEC then were washed with medium and incubated with anti-human IgG-A633 (1:500; Invitrogen) in their own medium.
# E-cadherin = E-cadherin surface expression on LEPs and MEPs by flow cytometry; assay type: cell-based, human; settings: Y27632 10−5 M or ML-7 3×10−6 M in HMEC medium for 6 h
# Procedure: E-cadherin expression on LEP and MEP was measured by addition of anti-E-cadherin-A647 (clone 67A4; Biolegend) to the above mixture at 1:50.
# as §2
# HCT116 = HCT116 epithelial cell line (Sahai et al. 2002); cited from earlier work
# MDCK = MDCK epithelial cell line (Sahai et al. 2002); cited from earlier work
Compound,self-organization of LEPs and MEPs [1],organization measured at 48 h [1],self-organization at the 24-h time point [1],differences in LEP:MEP ratios in the core and at the periphery by 48 h [1],bilayered organization of mouse mammary organoids (mouse mammary organoids),MEP stiffness (MEPs),LEP stiffness (LEPs),recEcad binding to HMEC surfaces (HMEC cell surfaces),lineage-specific differences in E-cadherin expression (E-cadherin),breakdown and recycling of mature adherens junctions (HCT116),breakdown and recycling of mature adherens junctions (MDCK)
O=S(=O)(c1cccc2c(I)cccc12)N1CCCNCC1 [ML-7],prevented self-organization,obliterated organization,prevented self-organization,differences in LEP:MEP ratios in the core and at the periphery were observed,disrupted the clean bilayered organization,unaffected,caused softening,did not prevent,did not change,–,–
C[C@@H](N)[C@H]1CC[C@H](C(=O)Nc2ccncc2)CC1 [Y27632],prevented self-organization,preserved the self-organized LEP cores,prevented self-organization,differences in LEP:MEP ratios in the core and at the periphery were observed,disrupted the clean bilayered organization,unaffected,caused softening,did not prevent,did not change,unable to break down and recycle,unable to break down and recycle
